# Assay results published in US10874686B2, “Anthranilyl-adenosinemonosulfamate analogs and uses thereof” (Memorial Sloan-Kettering Cancer Center, priority 2015, dated 2020).
# Read-outs that look alike come from different tables or passages of the source.
# Key:
# [1] = Pharmacokinetics in mice, plasma and lung; format: in vivo; settings: 10 mg/kg intraperitoneal
# Protocol: Twenty-four female mice were weighed and administered anthranilyl-AMS intraperitoneally at 10 mg/kg dose. The animals assigned for 24 hours sampling after dosing were kept in metabolic cages to collect urine and feces at an interval of 0 to 4, 4 to 8, and 8 to 24 hours. Approximately 60 μL of blood samples were collected from retro orbital plexus at 0.08, 0.25, 0.5, 1, 2, 4, 8, and 24 hours following i.p. administration. The blood samples were collected from three mice under light isoflurane anesthesia at each time point in labeled micro centrifuge tube containing K2EDTA solution. Blood samples were centrifuged at 4000 rpm for 10 minutes at 4±2° C. Immediately after plasma collection the animals were humanely euthanized by carbon dioxide asphyxiation, and lung samples were collected from each mouse at 0.08, 0.25, 0.5, 1, 2, 4, 8, and 24 hours. The tissue samples were then homogenized using ice-cold phosphate buffer saline (pH 7.4), and the total homogenate volume was three times of the tissue weight. The collected feces were weighed and homogenized with 9 volumes of ice-cold phosphate buffer saline (pH 7.4), and homogenates were stored below −70° C. until analysis. All samples were stored below −70° C. until sample analysis. The plasma and tissue samples were processed using protein precipitation with acetonitrile (ACN) and analyzed with fit for purpose LC-MS/MS method. Pharmacokinetic parameters were calculated using the non-compartmental analysis tool of Phoenix WinNonlin® (Version 6.3).
# MRC5 cells = assay: Cell health and viability image-based study (fluorescence microscopy), MRC5; settings: for IC50: Homo sapiens, MRC5, imaging; for toxicity in words, imaging, MRC5: up to 1000 μM
# Protocol: (§1) The multiparametric assay developed surveys a number of elements of cell health simultaneously. Using a combination of 2 dyes, we are able to simultaneously measure nuclear morphology, membrane integrity and cell proliferation. All measurements are made on live cells after an incubation time of 24H. Hoechst 33342 is used to measure total number of cells, nuclear morphology and cell proliferation. The nuclear impermeable dye Syto17 is used to assess the nuclear membrane integrity by measuring the nuclear translocation of the dye when the membrane gets porous after incubation with a toxic compound. Cells were plated at a density of 1500 cells/25 al in well in a 384 wells plate the day before incubation with the drugs. The following day, 0.1 al of the source plate are added to the assay plate. Then, 25 al of a fluorophores mixture containing Hoechst 33342, Syto17 diluted in EMEM was added to each well. Plates are read after 48 h incubation in the ImageXpress instrument (Molecular Devices) using the appropriate filters. Images are analyzed using an application of MetaXpress software (Molecular Devices) and data are presented using Prism software. Low Signal Control (C23): 5 μM Staurosporine; High Signal Control (C24): DMSO.
# HepG2 cells [2] = assay: Cell health and viability image-based study (fluorescence microscopy), HepG2; settings: for IC50: Homo sapiens, HepG2, imaging; for toxicity in words, imaging, HepG2: up to 1000 μM
# Protocol: as §1
# HepG2 cells [3] = assay: Cytotoxicity cell viability assay (CellTiter Glo), HepG2; format: cell-based; settings: for toxicity in words, CellTiter Glo, HepG2: HepG2, luminescence readout, up to 1000 μM; for IC50: Homo sapiens, HepG2, 48 hrs, luminescence
# Excerpt: Promega Cell Titer-Glo utilizes the ATP dependent conversion of Luciferin to Oxyluciferin by a recombinant Luciferase in order to quantify the number of metabolically active cells in a sample. Quantification is possible because the number of RLU's detected is linearly proportional to the amount of ATP produced by metabolically active cells in culture at the time of lysis. Therefore, the relative cytotoxicity of each compound can be tested by quantifying the amount of ATP present in each microtiter well as compared to control groups. HepG2 and MRC5 were plated at a density of 1500 cells/25 al in well in the assay plate and allowed to settle overnight. 0.1 μL of compounds was then transferred from the source plate, into the cell assay plates. The cells were left to incubate with the compounds for 48 hrs, after which, 25 μL of Promega Cell Titer-Glo was added to each well, and allowed to incubate at room temperature with shaking for 20 minutes. RLU's for each well were then recorded on a BioTek Synergy NEO. DMSO was used as negative control
# [4] = system: pyocyanin production by P. aeruginosa strain PA14; assay: Pyocyanin production by P. aeruginosa strain PA14; format: cell-based, Pseudomonas aeruginosa; settings: 1 mM, 24 h
# Protocol: Production of pyocyanin by P. aeruginosa strain PA14 was performed in triplicate in roundbottom glass tubes containing 5-mL cultures in LB medium. Tubes tilted at ˜60° angle were incubated at 37° C. in an orbital shaker at 200 rpm. Cultures were inoculated with 15-h preculture in LB in order to obtain a starting OD600 nm=0.05, with or without inhibitors added. At 24 h, 1 mL of each culture was thoroughly vortexed and centrifuged (12,000 g, 5 min). Next, 0.8 mL of the supernatant was removed and the OD690 nm was measured. The ratio of the absorbance compound-treated or MvfR^− cultures and untreated controls was calculated to provide the data in FIG. 7B.
# The ability of these PqsA inhibitors to block production of the virulence factor pyocyanin was investigated. […] See, e.g., Starkey et al. (2014) PLoS Pathog. 10, e1004321; Storz et al. (2012) J. Am. Chem. Soc. 134, 16143; Thomann et al. (2016) ACS Chem. Biol. 11, 1279. Haloanthranilate substrate analogues have been reported to inhibit both quinolone and pyocyanin production but may impact multiple targets in this complex signaling network. This is indicative of the complex relationship between HHQ and PQS quinolone biosynthesis, induction of the MvfR regulon, and production of pyocyanin.
# [5] = Hoechst 33342, read-out: Cell Count IC50, MRC5
# [6] = Syto17, read-out: Nuclear membrane integrity IC50, MRC5
# [7] = Hoechst 33342, read-out: Cell Count IC50, HepG2
# [8] = Syto17, read-out: Nuclear membrane integrity IC50, HepG2
SMILES,AUC lung ([1]; lung),Cmax lung ([1]; lung),"half-life ([1]; female, mouse, ip, lung, read-out: T1/2 lung)","AUC ([1]; female, mouse, ip, plasma)","Cmax ([1]; female, mouse, ip, plasma)","half-life ([1]; female, mouse, ip, plasma, read-out: T1/2 plasma)","Kp ([1]; female, mouse, lung / plasma, ip, read-out: lung/plasma ratio)",IC50 (MRC5 cells; [5]),IC50 (MRC5 cells; [6]),"toxicity in words, imaging, MRC5 (MRC5 cells)",IC50 (HepG2 cells [2]; [7]),IC50 (HepG2 cells [2]; [8]),"toxicity in words, imaging, HepG2 (HepG2 cells [2])","toxicity in words, CellTiter Glo, HepG2 (HepG2 cells [3])",IC50 (HepG2 cells [3]),inhibition of pyocyanin production [4]
"Nc1ccccc1C(=O)NS(=O)(=O)OC[C@H]1O[C@@H](n2cnc3c(N)ncnc32)[C@H](O)[C@@H]1O [anthranilyl-AMS, Anthranilyl-AMS]",63.9 μg · min/mL or μg · min/g,2.0 ± 0.3 µg/mL,130 min,5000 ng·h/mL,12100 ± 2900 ng/mL,63.6 min,0.21,21.5 µM,25.5 µM,significant toxicity in the tested range,5.9 µM,12.1 µM,significant toxicity in the tested range,significant toxicity in the tested range,3.1 µM,neither inhibited pyocyanin production
"Nc1ccccc1C(=O)NS(=O)(=O)NC[C@H]1O[C@@H](n2cnc3c(N)ncnc32)[C@H](O)[C@@H]1O [anthranilyl-AMSN, Anthranilyl-AMSN]",,,,,,,,58.8 µM,74.3 µM,significant toxicity in the tested range,6 µM,56.3 µM,significant toxicity in the tested range,significant toxicity in the tested range,19.2 µM,neither inhibited pyocyanin production
